Values after ≈ are worked out from the molar mass of the structure shown.
Assays:
[1] = Cytotoxicity against human HepG2 cells assessed as reduction in cell viability for 24 hrs by Celltiter-Glo assay; assay type: toxicity, cell-based
[2] = system: Acinetobacter baumannii; assay: Antibacterial activity against Acinetobacter baumannii NCTC 13420 assessed as bacterial growth inhibition by CLSI protocol based assay; assay type: functional
[3] = system: Klebsiella pneumoniae; assay: Antibacterial activity against Klebsiella pneumoniae ATCC 700603 assessed as bacterial growth inhibition by CLSI protocol based assay; assay type: functional
[4] = system: Pseudomonas aeruginosa; assay: Antibacterial activity against Pseudomonas aeruginosa ATCC 27853 assessed as bacterial growth inhibition by CLSI protocol based assay; assay type: functional
[5] = system: Escherichia coli; assay: Antibacterial activity against Escherichia coli W4573 assessed as bacterial growth inhibition by CLSI protocol based assay; assay type: functional
[6] = system: Escherichia coli; assay: Antibacterial activity against Escherichia coli N43 assessed as bacterial growth inhibition by CLSI protocol based assay; assay type: functional
[7] = target: Voltage-gated inwardly rectifying potassium channel KCNH2 (Homo sapiens, UniProt Q12809); assay: Inhibition of human ERG by Ionworks electrophysiology assay; assay type: toxicity
Voltage-gated inwardly rectifying potassium channel KCNH2, sequence (Q12809 whole entry): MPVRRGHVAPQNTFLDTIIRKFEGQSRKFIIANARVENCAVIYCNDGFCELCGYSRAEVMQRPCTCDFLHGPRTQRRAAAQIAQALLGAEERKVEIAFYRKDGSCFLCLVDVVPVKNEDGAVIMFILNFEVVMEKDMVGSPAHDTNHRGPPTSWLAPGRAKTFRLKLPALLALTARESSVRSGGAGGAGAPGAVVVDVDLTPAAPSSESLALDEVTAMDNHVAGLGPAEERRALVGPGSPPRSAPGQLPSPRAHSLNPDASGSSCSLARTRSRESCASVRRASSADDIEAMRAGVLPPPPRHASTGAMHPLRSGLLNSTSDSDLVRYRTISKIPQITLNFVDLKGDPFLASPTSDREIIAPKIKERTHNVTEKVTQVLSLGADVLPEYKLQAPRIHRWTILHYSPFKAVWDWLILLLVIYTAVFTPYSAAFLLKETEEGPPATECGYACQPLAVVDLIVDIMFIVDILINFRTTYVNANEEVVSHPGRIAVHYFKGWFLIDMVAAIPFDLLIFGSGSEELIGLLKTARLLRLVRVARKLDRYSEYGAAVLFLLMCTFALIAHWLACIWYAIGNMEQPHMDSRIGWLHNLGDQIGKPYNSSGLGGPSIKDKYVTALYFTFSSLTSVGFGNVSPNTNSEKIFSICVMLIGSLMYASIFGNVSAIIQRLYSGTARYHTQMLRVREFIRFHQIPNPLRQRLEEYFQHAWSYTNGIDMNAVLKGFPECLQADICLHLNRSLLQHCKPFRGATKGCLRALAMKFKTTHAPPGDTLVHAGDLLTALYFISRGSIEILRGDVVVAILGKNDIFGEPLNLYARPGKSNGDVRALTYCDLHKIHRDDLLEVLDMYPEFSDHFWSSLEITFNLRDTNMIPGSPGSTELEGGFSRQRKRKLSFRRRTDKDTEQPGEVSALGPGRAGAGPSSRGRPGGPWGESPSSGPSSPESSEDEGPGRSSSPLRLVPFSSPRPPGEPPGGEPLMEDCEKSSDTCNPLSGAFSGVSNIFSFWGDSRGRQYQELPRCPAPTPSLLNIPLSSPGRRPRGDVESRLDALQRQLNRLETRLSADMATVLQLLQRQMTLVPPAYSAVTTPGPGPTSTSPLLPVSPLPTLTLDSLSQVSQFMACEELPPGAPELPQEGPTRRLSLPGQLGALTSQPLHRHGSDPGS

[8] = Lipophilicity, logD of the compound by shake flask assay; assay type: physicochemical; settings: octanol/water
[9] = system: Staphylococcus aureus; assay: Antibacterial activity against Staphylococcus aureus ATCC 29213 assessed as bacterial growth inhibition by CLSI protocol based assay; assay type: functional
[10] = target: DNA gyrase (Escherichia coli, UniProt P0AES4+P0AES6); assay: Inhibition of Escherichia coli DNA gyrase supercoiling activity; assay type: protein-complex assay
[11] = Inhibition of Escherichia coli topoisomerase 4 assessed as reduction in decatenation
[12] = Intrinsic clearance in mouse liver microsomes in presence of NADPH and measured upto 45 mins; assay type: ADME, Microsome; settings: read-out: CLH
[13] = Intrinsic clearance in human liver microsomes in presence of NADPH and measured upto 45 mins; assay type: ADME, Microsome; settings: read-out: CLH
[14] = Plasma protein binding in mouse assessed as free fraction by equilibrium dialysis assay; assay type: ADME, cell-free
[15] = target: DNA topoisomerase 2-alpha (Homo sapiens, UniProt P11388); assay: Inhibition of human topoisomerase 2 assessed as reduction in decatenation
DNA topoisomerase 2-alpha, sequence (P11388 whole entry): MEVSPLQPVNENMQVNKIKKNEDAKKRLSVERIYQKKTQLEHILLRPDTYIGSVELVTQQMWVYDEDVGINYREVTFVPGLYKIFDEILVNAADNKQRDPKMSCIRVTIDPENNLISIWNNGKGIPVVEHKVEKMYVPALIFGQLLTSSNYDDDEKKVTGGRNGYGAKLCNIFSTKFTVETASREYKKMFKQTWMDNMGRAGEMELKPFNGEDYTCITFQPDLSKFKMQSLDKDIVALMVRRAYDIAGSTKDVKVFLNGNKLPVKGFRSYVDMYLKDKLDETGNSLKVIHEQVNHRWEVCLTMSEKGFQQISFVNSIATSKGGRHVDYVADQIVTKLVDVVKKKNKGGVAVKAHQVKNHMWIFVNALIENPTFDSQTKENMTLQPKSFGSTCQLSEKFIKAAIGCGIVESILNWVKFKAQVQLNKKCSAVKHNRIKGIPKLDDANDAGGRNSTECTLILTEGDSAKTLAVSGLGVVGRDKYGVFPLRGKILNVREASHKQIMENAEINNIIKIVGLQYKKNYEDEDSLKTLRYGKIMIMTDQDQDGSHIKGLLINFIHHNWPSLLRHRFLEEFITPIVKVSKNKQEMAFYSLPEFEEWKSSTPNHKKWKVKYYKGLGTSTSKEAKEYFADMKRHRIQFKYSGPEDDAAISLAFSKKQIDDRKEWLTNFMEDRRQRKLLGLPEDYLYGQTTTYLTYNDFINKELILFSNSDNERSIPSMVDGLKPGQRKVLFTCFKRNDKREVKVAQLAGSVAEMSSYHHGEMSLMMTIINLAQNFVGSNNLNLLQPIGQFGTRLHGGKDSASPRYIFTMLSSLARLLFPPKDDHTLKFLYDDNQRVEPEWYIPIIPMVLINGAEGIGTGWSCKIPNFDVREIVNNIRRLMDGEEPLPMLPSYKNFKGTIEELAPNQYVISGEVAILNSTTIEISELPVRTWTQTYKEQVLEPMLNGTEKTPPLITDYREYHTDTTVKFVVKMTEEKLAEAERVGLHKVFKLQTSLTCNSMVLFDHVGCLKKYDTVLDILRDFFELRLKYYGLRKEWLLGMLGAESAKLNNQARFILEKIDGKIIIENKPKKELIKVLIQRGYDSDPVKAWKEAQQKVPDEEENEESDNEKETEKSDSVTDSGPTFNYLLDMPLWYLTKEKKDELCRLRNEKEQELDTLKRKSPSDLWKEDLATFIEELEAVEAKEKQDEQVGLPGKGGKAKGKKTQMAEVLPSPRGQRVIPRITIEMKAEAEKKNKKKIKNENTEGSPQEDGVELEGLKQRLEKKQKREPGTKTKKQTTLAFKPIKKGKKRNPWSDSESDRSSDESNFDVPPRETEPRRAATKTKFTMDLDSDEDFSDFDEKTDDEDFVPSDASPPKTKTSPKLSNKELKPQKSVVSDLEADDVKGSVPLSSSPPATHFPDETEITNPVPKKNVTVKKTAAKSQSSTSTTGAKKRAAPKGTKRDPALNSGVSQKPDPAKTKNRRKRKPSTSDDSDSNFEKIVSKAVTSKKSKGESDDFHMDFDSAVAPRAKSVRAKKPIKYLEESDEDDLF

[16] = target: hERG (KCNH2) (Homo sapiens, UniProt Q12809); assay: Inhibition of human ERG at 100 uM by Ionworks electrophysiology assay; assay type: toxicity
hERG (KCNH2), sequence (Q12809 whole entry): as the sequence (Q12809 whole entry) above

[17] = Kinetic solubility of compound; assay type: physicochemical; settings: read-out: Kinetic_solubility
[18] = Protein binding in human plasma by equilibrium dialysis assay; assay type: ADME, cell-free; settings: read-out: PPB (converted)

Structure (SMILES)	IC50 at 24 h [1]	MIC [2]	MIC [3]	MIC [4]	MIC [5]	MIC [6]	IC50 [7]	logD [8]	MIC [9]	IC50 [10]	IC50 [11]	microsomal CLint [12]	microsomal CLint [13]	fraction unbound [14]	IC50 [15]	inhibition at 100 µM [16]	solubility kinetic [17]	fraction unbound [18]
COc1ccc2ccc(=O)n(CCN[C@H]3CC[C@H]4[C@H](C3)OC(=O)N4c3ncc4c(n3)NC(=O)CO4)c2n1	> 128 µg/mL	1 µg/mL (≈ 1.97 µM)	8 µg/mL (≈ 15.8 µM)	8 µg/mL (≈ 15.8 µM)	0.5 µg/mL (≈ 0.985 µM)	0.015 µg/mL (≈ 0.0296 µM)	> 32 µM	0.9	–	–	–	–	–	–	–	–	–	–
COc1cnc2ccc(=O)n(CCN[C@H]3CC[C@H]4[C@H](C3)OC(=O)N4c3ccc4c(n3)NC(=O)CO4)c2n1	> 128 µg/mL	0.12 µg/mL (≈ 0.236 µM)	2 µg/mL (≈ 3.94 µM)	1 µg/mL (≈ 1.97 µM)	0.12 µg/mL (≈ 0.236 µM)	0.004 µg/mL (≈ 0.00788 µM)	9 µM	1.37	0.015 µg/mL (≈ 0.0296 µM)	–	–	–	–	–	–	–	–	–
N#Cc1cnc2ccc(=O)n(CCN[C@H]3CC[C@H]4[C@H](C3)OC(=O)N4c3ccc4c(n3)NC(=O)CO4)c2c1	> 128 µg/mL	1 µg/mL (≈ 1.99 µM)	8 µg/mL (≈ 16 µM)	2 µg/mL (≈ 3.99 µM)	0.25 µg/mL (≈ 0.499 µM)	0.004 µg/mL (≈ 0.00798 µM)	> 100 µM	0.79	0.06 µg/mL (≈ 0.12 µM)	0.09 µM	0.017 µM	55 µL/min/mg	< 3 µL/min/mg	> 0.3	> 100 µM	–	–	–
O=C1COc2ccc(N3C(=O)O[C@H]4C[C@@H](NCCn5c(=O)ccc6ccc(C(=O)O)cc65)CC[C@@H]43)nc2N1	–	> 64 µg/mL	> 64 µg/mL	> 64 µg/mL	> 64 µg/mL	16 µg/mL (≈ 30.8 µM)	–	< 0.2	> 64 µg/mL	–	–	–	–	–	–	33%	–	–
O=C1COc2ccc(N3C(=O)O[C@H]4C[C@@H](NCCn5c(=O)cnc6ccc(F)cc65)CC[C@@H]43)nc2N1	> 64 µg/mL	0.03 µg/mL (≈ 0.0607 µM)	8 µg/mL (≈ 16.2 µM)	4 µg/mL (≈ 8.09 µM)	0.25 µg/mL (≈ 0.506 µM)	≤ 0.002 µg/mL	–	1.58	0.015 µg/mL (≈ 0.0303 µM)	–	–	–	–	–	–	33%	–	–
COc1cnc2ccc(=O)n(CCN[C@H]3CC[C@H]4[C@H](C3)OC(=O)N4c3ccc4c(n3)NC(=O)CO4)c2c1	> 128 µg/mL	1 µg/mL (≈ 1.97 µM)	8 µg/mL (≈ 15.8 µM)	2 µg/mL (≈ 3.95 µM)	0.25 µg/mL (≈ 0.494 µM)	≤ 0.008 µg/mL	32 µM	1.36	0.03 µg/mL (≈ 0.0592 µM)	0.22 µM	0.1 µM	62 µL/min/mg	35 µL/min/mg	0.25	> 100 µM	–	94 µM (≈ 47.6 µg/mL)	–
COc1ccc2ccc(=O)n(CCN[C@H]3CC[C@H]4[C@H](C3)OC(=O)N4c3ccc4c(n3)NC(=O)CO4)c2c1	> 64 µg/mL	0.06 µg/mL (≈ 0.119 µM)	8 µg/mL (≈ 15.8 µM)	4 µg/mL (≈ 7.91 µM)	0.25 µg/mL (≈ 0.495 µM)	0.03 µg/mL (≈ 0.0593 µM)	–	2.25	0.008 µg/mL (≈ 0.0158 µM)	–	–	–	–	–	–	85%	–	–
COc1ccc2ccc(=O)n(CCN[C@H]3CC[C@H]4[C@H](C3)OC(=O)N4c3ccc4c(n3)NC(=O)C(C)(C)O4)c2n1	–	1 µg/mL (≈ 1.87 µM)	64 µg/mL (≈ 120 µM)	32 µg/mL (≈ 59.9 µM)	2 µg/mL (≈ 3.74 µM)	0.03 µg/mL (≈ 0.0561 µM)	–	2.84	0.03 µg/mL (≈ 0.0561 µM)	–	–	–	–	–	–	–	–	–
COc1ccc2ccc(=O)n(CCN[C@@H]3CC[C@@H]4[C@@H](C3)OC(=O)N4c3ccc4c(n3)NC(=O)CO4)c2n1	64 µg/mL (≈ 126 µM)	0.06 µg/mL (≈ 0.118 µM)	1 µg/mL (≈ 1.97 µM)	0.25 µg/mL (≈ 0.494 µM)	0.03 µg/mL (≈ 0.0592 µM)	< 0.004 µg/mL	10 µM	1.8	0.03 µg/mL (≈ 0.0592 µM)	–	–	–	–	–	–	–	–	0.947
COc1ccc2ncc(=O)n(CCN[C@H]3CC[C@H]4[C@H](C3)OC(=O)N4c3ccc4c(n3)NC(=O)CO4)c2n1	> 64 µg/mL	0.06 µg/mL (≈ 0.118 µM)	4 µg/mL (≈ 7.88 µM)	4 µg/mL (≈ 7.88 µM)	0.25 µg/mL (≈ 0.493 µM)	≤ 0.008 µg/mL	7 µM	1.6	0.015 µg/mL (≈ 0.0296 µM)	–	–	–	–	–	–	–	–	–
COc1ncc2ccc(=O)n(CCN[C@H]3CC[C@H]4[C@H](C3)OC(=O)N4c3ccc4c(n3)NC(=O)CO4)c2n1	–	3.2 µg/mL (≈ 6.31 µM)	> 64 µg/mL	> 64 µg/mL	32 µg/mL (≈ 63.1 µM)	1 µg/mL (≈ 1.97 µM)	–	1.79	2 µg/mL (≈ 3.94 µM)	–	–	–	–	–	–	–	–	–
O=C1COc2ccc(N3C(=O)O[C@H]4C[C@@H](NCCCn5c(=O)cnc6ccc(F)cc65)CC[C@@H]43)nc2N1	> 128 µg/mL	0.12 µg/mL (≈ 0.236 µM)	2 µg/mL (≈ 3.93 µM)	1 µg/mL (≈ 1.97 µM)	0.12 µg/mL (≈ 0.236 µM)	0.25 µg/mL (≈ 0.492 µM)	13 µM	1.26	0.25 µg/mL (≈ 0.492 µM)	–	–	–	–	–	–	–	–	–
N#Cc1ccc2ccc(=O)n(CCCN[C@H]3CC[C@H]4[C@H](C3)OC(=O)N4c3ccc4c(n3)NC(=O)CO4)c2c1	55 µg/mL (≈ 107 µM)	0.12 µg/mL (≈ 0.233 µM)	2 µg/mL (≈ 3.89 µM)	1 µg/mL (≈ 1.94 µM)	0.06 µg/mL (≈ 0.117 µM)	≤ 0.016 µg/mL	7 µM	1.03	0.06 µg/mL (≈ 0.117 µM)	–	–	–	–	–	–	–	–	–
COc1ccc2ccc(=O)n(CCCN[C@H]3CC[C@H]4[C@H](C3)OC(=O)N4c3ccc4c(n3)NC(=O)CO4)c2n1	40 µg/mL (≈ 76.8 µM)	0.06 µg/mL (≈ 0.115 µM)	8 µg/mL (≈ 15.4 µM)	4 µg/mL (≈ 7.68 µM)	0.25 µg/mL (≈ 0.48 µM)	≤ 0.002 µg/mL	–	1.61	0.015 µg/mL (≈ 0.0288 µM)	–	–	–	–	–	–	97%	–	–
COc1cc2c(ccc(=O)n2CCN[C@H]2CC[C@H]3[C@H](C2)OC(=O)N3c2ccc3c(n2)NC(=O)CO3)cn1	–	0.5 µg/mL (≈ 0.987 µM)	32 µg/mL (≈ 63.2 µM)	16 µg/mL (≈ 31.6 µM)	2 µg/mL (≈ 3.95 µM)	0.06 µg/mL (≈ 0.118 µM)	–	1.69	0.5 µg/mL (≈ 0.987 µM)	–	–	–	–	–	–	83%	–	–
N#Cc1ccc2c(ccc(=O)n2CCN[C@H]2CC[C@H]3[C@H](C2)OC(=O)N3c2ccc3c(n2)NC(=O)CO3)c1	–	8 µg/mL (≈ 16 µM)	> 64 µg/mL	> 64 µg/mL	4 µg/mL (≈ 7.99 µM)	0.06 µg/mL (≈ 0.12 µM)	–	1.69	4 µg/mL (≈ 7.99 µM)	–	–	–	–	–	–	56%	–	–
N#Cc1cnc2ccc(=O)n(CCN[C@H]3CC[C@H]4[C@H](C3)OC(=O)N4c3ccc4c(n3)NC(=O)CS4)c2c1	> 128 µg/mL	0.12 µg/mL (≈ 0.232 µM)	16 µg/mL (≈ 30.9 µM)	2 µg/mL (≈ 3.86 µM)	0.5 µg/mL (≈ 0.966 µM)	0.004 µg/mL (≈ 0.00773 µM)	20 µM	1.42	0.03 µg/mL (≈ 0.058 µM)	–	–	–	–	–	–	–	–	–
O=C(O)c1cn(C2CC2)c2cc(N3CCNCC3)c(F)cc2c1=O [CIPROFLOXACIN]	> 128 µg/mL	–	–	–	–	–	–	–	–	–	0.03 µM	–	–	–	–	–	–	–

From ChEMBL document CHEMBL5143607, “Discovery and structure-activity relationships of a novel oxazolidinone class of bacterial type II topoisomerase inhibitors” (Bioorg Med Chem Lett, 2022)
